Experimental data from ChEMBL document CHEMBL1201862, “PubChem BioAssay data set” (2004).
Activity calls are given as the source filed them.

How the values were obtained:
[1] = inhibition of ARNT PAS-B/TACC3 complex formation – biochemical, AlphaScreen, cherry-picked samples, confirmation (AID 651703); format: functional, Homo sapiens;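 note: His-tagged ARNT PAS-B domain paired with GST-TACC3 E629A dimer coactivator fragment; potency of inhibitors that break up the complex and lower AlphaScreen signal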
[2] = target: T1, Low molecular weight phosphotyrosine protein phosphatase (Homo sapiens, UniProt P24666); format: functional; details: read-out: IC50_Mean
T1 sequence (P24666 whole entry): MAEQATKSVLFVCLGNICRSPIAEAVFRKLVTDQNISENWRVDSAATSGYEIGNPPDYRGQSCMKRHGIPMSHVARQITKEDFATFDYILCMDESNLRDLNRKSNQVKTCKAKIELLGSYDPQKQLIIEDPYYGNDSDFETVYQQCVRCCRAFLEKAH

[3] = target: T1, Low molecular weight phosphotyrosine protein phosphatase; format: functional; details: read-out: IC50_Mean; remark: listed apart in the source
[4] = target: 1-phosphatidylinositol 4,5-bisphosphate phosphodiesterase gamma-1 (Homo sapiens, UniProt P19174); test: Counterscreen for inhibitors of phospholipase C isozymes (PLC-B3): Fluorescence-based biochemical high throughput dose response assay to identify inhibitors of phospholipase C isozymes (PLC-gamma1).
Sequence of 1-phosphatidylinositol 4,5-bisphosphate phosphodiesterase gamma-1 (P19174 whole entry): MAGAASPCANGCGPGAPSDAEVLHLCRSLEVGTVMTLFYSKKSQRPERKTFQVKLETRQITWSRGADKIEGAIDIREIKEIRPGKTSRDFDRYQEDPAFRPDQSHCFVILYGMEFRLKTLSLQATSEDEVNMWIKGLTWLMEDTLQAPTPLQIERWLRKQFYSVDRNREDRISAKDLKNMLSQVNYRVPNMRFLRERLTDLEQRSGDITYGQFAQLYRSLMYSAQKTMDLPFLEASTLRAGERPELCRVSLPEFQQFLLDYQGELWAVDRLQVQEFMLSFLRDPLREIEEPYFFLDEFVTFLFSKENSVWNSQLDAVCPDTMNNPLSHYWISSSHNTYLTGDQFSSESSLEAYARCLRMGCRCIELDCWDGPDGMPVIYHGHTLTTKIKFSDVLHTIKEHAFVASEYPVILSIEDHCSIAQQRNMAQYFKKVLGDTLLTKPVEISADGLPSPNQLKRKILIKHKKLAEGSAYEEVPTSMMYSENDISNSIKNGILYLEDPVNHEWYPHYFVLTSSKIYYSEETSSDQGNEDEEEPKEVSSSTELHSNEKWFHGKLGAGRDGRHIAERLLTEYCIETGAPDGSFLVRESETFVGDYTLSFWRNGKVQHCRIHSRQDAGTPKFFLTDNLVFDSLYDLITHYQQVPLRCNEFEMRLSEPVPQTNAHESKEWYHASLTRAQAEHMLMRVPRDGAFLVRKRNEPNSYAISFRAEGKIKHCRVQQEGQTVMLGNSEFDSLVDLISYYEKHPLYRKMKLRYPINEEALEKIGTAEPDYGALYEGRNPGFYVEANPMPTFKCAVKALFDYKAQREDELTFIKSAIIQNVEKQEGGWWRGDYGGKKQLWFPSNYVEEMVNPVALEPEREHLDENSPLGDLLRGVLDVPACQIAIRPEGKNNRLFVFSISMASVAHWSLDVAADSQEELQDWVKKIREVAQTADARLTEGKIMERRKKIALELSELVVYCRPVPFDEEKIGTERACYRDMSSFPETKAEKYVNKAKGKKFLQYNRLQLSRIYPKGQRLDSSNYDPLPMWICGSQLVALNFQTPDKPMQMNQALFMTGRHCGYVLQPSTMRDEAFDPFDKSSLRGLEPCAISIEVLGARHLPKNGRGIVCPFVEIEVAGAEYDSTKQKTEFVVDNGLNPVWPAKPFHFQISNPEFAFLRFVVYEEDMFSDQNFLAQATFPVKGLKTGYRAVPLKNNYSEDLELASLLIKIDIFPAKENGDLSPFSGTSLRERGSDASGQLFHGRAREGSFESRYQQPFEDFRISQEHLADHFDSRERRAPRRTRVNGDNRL

[5] = target: 1-phosphatidylinositol 4,5-bisphosphate phosphodiesterase beta-3 (Homo sapiens, UniProt Q01970); test: Fluorescence-based biochemical high throughput dose response assay to identify inhibitors of phospholipase C isozymes (PLC-B3).
Sequence of 1-phosphatidylinositol 4,5-bisphosphate phosphodiesterase beta-3 (Q01970 whole entry): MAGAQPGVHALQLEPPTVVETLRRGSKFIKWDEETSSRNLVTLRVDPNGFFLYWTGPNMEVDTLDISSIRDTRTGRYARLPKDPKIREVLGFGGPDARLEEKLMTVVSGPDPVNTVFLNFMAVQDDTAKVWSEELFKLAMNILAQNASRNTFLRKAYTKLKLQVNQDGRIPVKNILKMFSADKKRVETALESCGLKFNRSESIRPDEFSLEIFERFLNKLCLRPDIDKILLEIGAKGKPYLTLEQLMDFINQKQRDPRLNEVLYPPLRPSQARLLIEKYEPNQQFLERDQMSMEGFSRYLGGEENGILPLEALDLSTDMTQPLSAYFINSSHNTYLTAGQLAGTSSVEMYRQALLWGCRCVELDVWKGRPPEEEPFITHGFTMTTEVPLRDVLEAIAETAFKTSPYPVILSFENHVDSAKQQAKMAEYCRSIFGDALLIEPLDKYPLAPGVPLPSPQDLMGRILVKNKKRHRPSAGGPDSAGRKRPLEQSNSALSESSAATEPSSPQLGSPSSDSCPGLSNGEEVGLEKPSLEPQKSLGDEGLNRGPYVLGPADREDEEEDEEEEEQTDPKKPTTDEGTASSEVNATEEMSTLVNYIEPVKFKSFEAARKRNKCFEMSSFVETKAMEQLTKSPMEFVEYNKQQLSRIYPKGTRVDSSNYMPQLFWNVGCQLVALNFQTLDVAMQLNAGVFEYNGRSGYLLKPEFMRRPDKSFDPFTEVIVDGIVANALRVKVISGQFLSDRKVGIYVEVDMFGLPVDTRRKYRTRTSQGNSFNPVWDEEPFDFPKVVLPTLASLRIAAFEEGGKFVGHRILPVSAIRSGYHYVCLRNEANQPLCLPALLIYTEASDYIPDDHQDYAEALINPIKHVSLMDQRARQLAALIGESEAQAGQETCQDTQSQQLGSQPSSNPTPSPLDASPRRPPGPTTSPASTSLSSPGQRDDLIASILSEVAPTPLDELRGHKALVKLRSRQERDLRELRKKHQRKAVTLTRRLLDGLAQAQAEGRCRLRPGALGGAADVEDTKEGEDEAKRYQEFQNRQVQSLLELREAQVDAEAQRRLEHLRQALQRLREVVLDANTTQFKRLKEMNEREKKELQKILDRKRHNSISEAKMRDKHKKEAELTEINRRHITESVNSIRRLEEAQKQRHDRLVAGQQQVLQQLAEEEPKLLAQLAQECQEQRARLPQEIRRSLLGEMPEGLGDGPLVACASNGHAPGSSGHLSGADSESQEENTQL

[6] = target: RNA-editing ligase 1, mitochondrial (Trypanosoma brucei brucei, UniProt P86926); test: inhibition of trypanosome RNA editing ligase – biochemical, fluorescence, Trypanosoma brucei, dose response (AID 1117295); format: functional
Sequence of RNA-editing ligase 1, mitochondrial (P86926 whole entry): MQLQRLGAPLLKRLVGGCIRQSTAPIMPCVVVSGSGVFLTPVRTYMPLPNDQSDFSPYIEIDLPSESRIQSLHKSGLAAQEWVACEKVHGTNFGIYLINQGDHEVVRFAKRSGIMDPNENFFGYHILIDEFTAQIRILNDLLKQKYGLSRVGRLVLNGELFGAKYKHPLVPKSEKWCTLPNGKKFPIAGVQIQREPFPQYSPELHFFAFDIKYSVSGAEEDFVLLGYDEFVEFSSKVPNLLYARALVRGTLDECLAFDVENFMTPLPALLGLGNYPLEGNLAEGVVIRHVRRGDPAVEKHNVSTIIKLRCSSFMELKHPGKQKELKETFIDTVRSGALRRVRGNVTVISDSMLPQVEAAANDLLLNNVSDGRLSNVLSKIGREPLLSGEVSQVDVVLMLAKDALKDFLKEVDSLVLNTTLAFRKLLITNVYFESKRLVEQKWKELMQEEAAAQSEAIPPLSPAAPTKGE

[7] = target: T2, Tyrosyl-DNA phosphodiesterase 2 (Homo sapiens, UniProt O95551); test: potency against TDP2 phosphodiesterase activity – biochemical, epi absorbance, IC50, dose response (AID 743297)
T2 sequence (O95551 whole entry): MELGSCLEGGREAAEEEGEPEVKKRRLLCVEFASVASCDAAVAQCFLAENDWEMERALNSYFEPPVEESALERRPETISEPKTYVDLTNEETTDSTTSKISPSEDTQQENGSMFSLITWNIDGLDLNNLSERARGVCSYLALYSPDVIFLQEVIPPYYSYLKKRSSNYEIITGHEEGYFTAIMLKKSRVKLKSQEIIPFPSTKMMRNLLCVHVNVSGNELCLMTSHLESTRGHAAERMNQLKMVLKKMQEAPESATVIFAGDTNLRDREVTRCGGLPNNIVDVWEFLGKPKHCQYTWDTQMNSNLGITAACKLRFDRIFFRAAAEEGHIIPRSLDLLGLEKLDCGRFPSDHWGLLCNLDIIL

[8] = general cell-killing toxicity readout – plate reader, dry powder samples, cytotoxicity control for PAX8 inhibitor project, dose response (AID 743021); format: functional, cell-based
[9] = target: Paired box protein Pax-8 (Homo sapiens, UniProt Q06710); test: PAX8 transcriptional activity inhibition in RMG-I – RMG-I cells, luciferase, cherry-pick, dose response (AID 687027); format: functional, cell-based;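 note: luciferase reporter driven by Pax8 target thyroperoxidase promoter measured by SteadyGlo luminescence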
Sequence of Paired box protein Pax-8 (Q06710 whole entry): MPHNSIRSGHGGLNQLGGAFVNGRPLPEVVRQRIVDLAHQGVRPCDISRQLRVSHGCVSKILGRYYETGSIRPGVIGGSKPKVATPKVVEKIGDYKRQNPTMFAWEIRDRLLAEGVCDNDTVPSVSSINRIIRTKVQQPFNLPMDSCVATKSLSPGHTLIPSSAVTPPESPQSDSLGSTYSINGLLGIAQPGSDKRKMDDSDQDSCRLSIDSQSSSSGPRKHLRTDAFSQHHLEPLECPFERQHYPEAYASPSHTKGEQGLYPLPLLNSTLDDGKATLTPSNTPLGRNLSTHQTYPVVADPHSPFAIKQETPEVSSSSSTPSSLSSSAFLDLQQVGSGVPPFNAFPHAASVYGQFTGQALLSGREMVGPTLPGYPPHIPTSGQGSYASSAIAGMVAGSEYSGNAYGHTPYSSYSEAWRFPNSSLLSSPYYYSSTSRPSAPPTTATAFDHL

[10] = target: Ras and Rab interactor 1/Tyrosine-protein kinase ABL1 (Homo sapiens, UniProt P00519+Q13671); format: functional;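 note: biochemical TR-FRET dose-response test measuring inhibition of binding between Rin1 and Abl proteins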
[11] = target: Mitochondrial peptide methionine sulfoxide reductase (Bos taurus, UniProt P54149); test: Absorbance-based biochemical high throughput dose response assay for activators of Methionine sulfoxide reductase A (MsrA).; format: functional
Sequence of Mitochondrial peptide methionine sulfoxide reductase (P54149 whole entry, the tested form may be a part): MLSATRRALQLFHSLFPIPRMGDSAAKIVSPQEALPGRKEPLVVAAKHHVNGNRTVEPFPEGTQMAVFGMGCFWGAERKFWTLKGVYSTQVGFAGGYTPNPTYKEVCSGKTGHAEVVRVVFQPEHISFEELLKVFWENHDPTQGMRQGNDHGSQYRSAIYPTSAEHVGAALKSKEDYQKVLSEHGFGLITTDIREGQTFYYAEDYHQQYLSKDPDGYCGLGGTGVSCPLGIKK

[12] = target: Photoreceptor-specific nuclear receptor (Homo sapiens, UniProt Q9Y5X4); format: functional, cell-based;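 note: CHO-S cells with Gal4-NCOR and VP16-NR2E3 two-hybrid luciferase reporter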
Sequence of Photoreceptor-specific nuclear receptor (Q9Y5X4 whole entry, the tested form may be a part): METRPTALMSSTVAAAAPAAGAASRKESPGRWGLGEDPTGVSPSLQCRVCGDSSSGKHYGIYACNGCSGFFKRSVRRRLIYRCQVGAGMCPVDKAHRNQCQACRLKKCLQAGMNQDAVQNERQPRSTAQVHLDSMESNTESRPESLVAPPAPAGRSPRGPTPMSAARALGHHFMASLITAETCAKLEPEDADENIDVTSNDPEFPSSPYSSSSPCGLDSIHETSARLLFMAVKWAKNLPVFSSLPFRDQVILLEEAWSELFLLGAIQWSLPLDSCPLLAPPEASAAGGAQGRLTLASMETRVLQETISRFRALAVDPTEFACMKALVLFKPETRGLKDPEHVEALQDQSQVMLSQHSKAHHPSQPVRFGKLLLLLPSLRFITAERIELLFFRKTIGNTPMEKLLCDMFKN

[13] = target: T3, Histone-lysine N-methyltransferase NSD2 (Homo sapiens, UniProt O96028); format: biochemical
T3 sequence (O96028 whole entry): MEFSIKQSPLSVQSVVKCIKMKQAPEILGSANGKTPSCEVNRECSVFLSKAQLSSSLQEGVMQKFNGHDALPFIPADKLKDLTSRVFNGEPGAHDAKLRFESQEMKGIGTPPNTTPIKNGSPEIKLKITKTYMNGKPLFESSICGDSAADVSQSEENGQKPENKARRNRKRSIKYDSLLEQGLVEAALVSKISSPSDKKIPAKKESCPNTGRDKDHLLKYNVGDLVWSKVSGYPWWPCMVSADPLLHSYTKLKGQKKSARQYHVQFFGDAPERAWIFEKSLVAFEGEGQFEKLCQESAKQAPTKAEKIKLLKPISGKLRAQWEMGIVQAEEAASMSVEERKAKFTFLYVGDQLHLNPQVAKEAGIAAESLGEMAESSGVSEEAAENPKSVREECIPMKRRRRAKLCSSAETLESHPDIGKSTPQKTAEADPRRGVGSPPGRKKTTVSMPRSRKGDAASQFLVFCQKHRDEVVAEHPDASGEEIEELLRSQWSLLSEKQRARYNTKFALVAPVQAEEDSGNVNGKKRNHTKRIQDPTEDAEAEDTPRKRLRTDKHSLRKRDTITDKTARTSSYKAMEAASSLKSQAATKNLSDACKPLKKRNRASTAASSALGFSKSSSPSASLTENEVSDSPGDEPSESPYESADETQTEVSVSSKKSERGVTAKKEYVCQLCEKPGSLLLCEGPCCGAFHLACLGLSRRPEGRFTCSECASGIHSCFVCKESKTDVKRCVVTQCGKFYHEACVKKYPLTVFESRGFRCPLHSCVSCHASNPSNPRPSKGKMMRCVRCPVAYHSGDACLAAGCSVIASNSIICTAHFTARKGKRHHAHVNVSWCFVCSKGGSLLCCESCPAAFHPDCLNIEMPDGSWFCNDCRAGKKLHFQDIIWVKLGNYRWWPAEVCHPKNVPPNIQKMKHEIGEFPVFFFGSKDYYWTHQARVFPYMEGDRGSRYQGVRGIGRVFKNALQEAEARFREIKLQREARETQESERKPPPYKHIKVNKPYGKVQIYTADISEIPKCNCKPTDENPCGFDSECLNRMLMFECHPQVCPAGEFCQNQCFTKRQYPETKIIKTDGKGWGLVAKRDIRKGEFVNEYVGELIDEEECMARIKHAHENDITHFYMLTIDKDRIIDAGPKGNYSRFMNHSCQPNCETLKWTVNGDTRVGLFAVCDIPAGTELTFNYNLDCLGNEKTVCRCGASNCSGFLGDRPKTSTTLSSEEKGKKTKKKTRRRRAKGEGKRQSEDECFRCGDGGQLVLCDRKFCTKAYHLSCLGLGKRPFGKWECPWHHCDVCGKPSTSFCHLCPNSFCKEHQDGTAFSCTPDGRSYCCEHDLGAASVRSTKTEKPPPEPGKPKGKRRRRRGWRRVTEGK

[14] = luciferase reporter signal suppression in cells – H4 neuroglioma cells, luminescence, dose response (AID 1990); format: functional, cell-based
[15] = test system: BJ; test: cells; format: functional, cell-based; details: Homo sapiens
[16] = test system: BJ; test: BJ-TERT fibroblast viability loss – cell-based, RAS-independent, luminescence, dose response (AID 1933); format: functional; details: Homo sapiens
[17] = target: T4, DNA repair protein RAD52 homolog (Homo sapiens, UniProt P43351); format: functional, biochemical
T4 sequence (P43351 whole entry): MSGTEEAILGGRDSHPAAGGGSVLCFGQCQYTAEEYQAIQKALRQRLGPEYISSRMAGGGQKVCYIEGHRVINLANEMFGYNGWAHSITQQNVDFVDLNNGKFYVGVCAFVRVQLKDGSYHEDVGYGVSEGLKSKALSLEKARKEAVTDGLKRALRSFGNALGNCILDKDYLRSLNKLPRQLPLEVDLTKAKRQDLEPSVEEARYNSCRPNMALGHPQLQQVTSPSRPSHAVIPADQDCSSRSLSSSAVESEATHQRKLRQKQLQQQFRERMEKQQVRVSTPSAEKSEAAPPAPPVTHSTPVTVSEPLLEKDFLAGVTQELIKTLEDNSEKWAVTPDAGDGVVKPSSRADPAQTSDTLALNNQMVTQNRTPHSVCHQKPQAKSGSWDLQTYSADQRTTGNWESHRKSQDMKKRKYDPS

[18] = test system: BJ; test: BJ-TERT-LT-ST fibroblast viability loss – cell-based, RAS-independent, luminescence, dose response (AID 1935); format: functional; details: Homo sapiens;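 note: BJ fibroblasts immortalized with TERT plus LT and ST oncogenes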
[19] = target: Beta Lactamase (Pseudomonas aeruginosa, UniProt Q932Y6); test: BLA reporter interference, concentration series – BLA reporter cells, FRET fluorescence, artefact control for NOD2-RIPK2 interaction inhibitor project, dose response (AID 651552); format: functional, cell-based
Sequence of Beta Lactamase (Q932Y6 whole entry): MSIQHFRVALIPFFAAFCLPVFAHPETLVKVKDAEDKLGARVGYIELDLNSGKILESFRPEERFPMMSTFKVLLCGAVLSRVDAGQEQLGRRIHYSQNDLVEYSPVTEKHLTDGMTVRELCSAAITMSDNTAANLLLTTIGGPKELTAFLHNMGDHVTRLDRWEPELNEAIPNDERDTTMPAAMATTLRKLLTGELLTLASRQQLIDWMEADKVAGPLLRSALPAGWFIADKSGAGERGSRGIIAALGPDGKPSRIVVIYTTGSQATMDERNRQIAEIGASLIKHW

[20] = test system: BJ; test: growth inhibition of engineered Ras-driven BJ cells – cell-based, alamar blue fluorescence, cherrypicked samples, dose response (AID 2631); format: functional; details: Homo sapiens;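 note: confirmatory dose-response assay in RAS-dependent BJ fibroblasts engineered with TERT, LT and ST, with cytotoxicity read by fluorescence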
[21] = Fluorescence-based cell-based high throughput dose response assay for inhibitors of the interaction of nucleotide-binding oligomerization domain containing 2 (NOD2) and the receptor-interacting serine-threonine kinase 2 (RIPK2).; format: functional; details: Homo sapiens
[22] = Luminescence Cell-Based Dose Response HTS to Identify Inhibitors of 5'UTR Stem-Loop Driven Prion Protein mRNA Translation in H4 Neuroglioblastoma Cells. [Related pubchem assays: 1827 (Project Summary), 1813 (Primary HTS)]; format: functional
[23] = DRD fibroblast viability loss – cell-based, non-viral oncogenic, luminescence, dose response (AID 1934); format: functional; details: Homo sapiens
[24] = target: T5, Heat shock factor protein 1 (Mus musculus, UniProt P38532); test: enhancement of HSF1-driven luciferase signal – cell-based, NIH3T3, luminescence, dose retest, confirmation (AID 435004); format: functional;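 note: stress induced by proteasome inhibitor MG132 added 30 min after compound; luciferase reporter driven by HSF1 response element in NIH3T3 cells; actives raise luminescence as potentiators of the MG132 stress response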
T5 sequence (P38532 whole entry): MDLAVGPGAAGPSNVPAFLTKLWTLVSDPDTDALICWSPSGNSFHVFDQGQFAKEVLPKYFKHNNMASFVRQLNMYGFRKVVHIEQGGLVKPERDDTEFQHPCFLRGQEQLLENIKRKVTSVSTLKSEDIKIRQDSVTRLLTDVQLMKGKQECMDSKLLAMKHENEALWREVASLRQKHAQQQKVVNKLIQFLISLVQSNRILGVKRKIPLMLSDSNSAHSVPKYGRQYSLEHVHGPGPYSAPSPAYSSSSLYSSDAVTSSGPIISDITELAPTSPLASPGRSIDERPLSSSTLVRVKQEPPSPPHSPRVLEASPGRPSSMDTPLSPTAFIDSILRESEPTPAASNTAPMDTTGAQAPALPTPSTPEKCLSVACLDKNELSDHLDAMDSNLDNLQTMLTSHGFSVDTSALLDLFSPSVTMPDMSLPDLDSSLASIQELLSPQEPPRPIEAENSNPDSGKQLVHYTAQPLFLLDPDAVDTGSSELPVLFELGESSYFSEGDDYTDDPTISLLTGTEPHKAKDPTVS

[25] = alpha-synuclein stem-loop luciferase translation blockers – H4 neuroglioma cells, luminescence, confirmation (AID 1988); format: functional, cell-based

Question: Which AC50 [1] does the source give for `CCOc1ccc(Nc2nc(N)nc(CN(C)C3CCCCC3)n2)cc1` here?
Answer: 71.6 µM (active)

Question: Which results are given for `COCCNc1nc(NCc2cnc(C)cn2)c2sccc2n1`?
Answer: IC50 [2]: 20.4 µM (inactive); IC50 [3]: 13.5 µM (active)

Question: What does the source list for `O=C1C(=O)c2cccnc2-c2ncccc21`?
Answer: IC50 [4]: 11.2 µM (inactive); IC50 [5]: > 123 µM (inactive); IC50 [6]: 3.51 µM (active); IC50 [7]: 12.5 µM (inactive); AC50 [8]: 8.53 µM (active); AC50 [9]: 3.32 µM (active); IC50 [10]: 6.59 µM (active); EC50 [11]: 3.64 µM (active); IC50 [12]: 12.1 µM (inactive); AC50 [13]: 0.981 µM (active)

Question: With `COc1ccc(/N=C2\S/C(=C\c3ccc(Cl)c([N+](=O)[O-])c3)C(=O)N2CCN(C)C)cc1` as the compound, how does the EC50 [14] read?
Answer: > 120 µM (not active)

Question: And the EC50 [15]?
Answer: 9.3 µM (inconclusive)

Question: And the EC50 [16]?
Answer: 3.18 µM (inconclusive)

Question: What about the AC50 [17] of the same compound?
Answer: 10.8 µM (active)

Question: What about the EC50 [18] of the same compound?
Answer: 3.03 µM (inconclusive)

Question: And the IC50 [19]?
Answer: 49.7 µM (inactive)

Question: What about the EC50 [20] of the same compound?
Answer: 1.16 µM (active)

Question: And the IC50 [21]?
Answer: 1.5 µM (active)

Question: And the EC50 [22]?
Answer: 8.46 µM (active)

Question: And the EC50 [23]?
Answer: 2.8 µM (inconclusive)

Question: What about the EC50 [24] of the same compound?
Answer: 7.54 µM (active)

Question: And the EC50 [25]?
Answer: 8.97 µM (active)
